Experiment: mn = molality of the nth substance listed, in mol/kg
Conditions: 101 kPa, Liquid; for mass density: Vibrating tube method; for speed of sound: Pulse-echo method

O=S(=O)([O-])C(F)(F)F.O=S(=O)([O-])C(F)(F)F.O=S(=O)([O-])C(F)(F)F.[La+3] [lanthanum(III) trifluoromethanesulfonate] + CC(=O)N(C)C
Conditions	mass density, 283.15 K [kg/m3]	mass density, 293.15 K [kg/m3]	mass density, 298.15 K [kg/m3]	mass density, 303.15 K [kg/m3]	mass density, 313.15 K [kg/m3]	mass density, 323.15 K [kg/m3]	mass density, 333.15 K [kg/m3]	speed of sound, 298.15 K [m/s]
m1 = 0.02085	958.67	949.47	944.86	940.26	931.01	921.74	912.42	–
m1 = 0.02801	961.64	952.45	947.84	943.23	933.99	924.71	915.39	–
m1 = 0.03761	965.63	956.43	951.81	947.21	937.97	928.7	919.38	–
m1 = 0.04797	969.94	960.74	956.14	951.53	942.29	933.02	923.71	–
m1 = 0.05797	974.13	964.94	960.34	955.73	946.49	937.22	927.91	–
m1 = 0.07244	980.27	971.08	966.48	961.88	952.67	943.36	934	1455.9
m1 = 0.09378	989.43	980.24	975.64	971.03	961.79	952.5	943.16	–
m1 = 0.1127	997.64	988.45	983.85	979.24	969.99	960.7	951.36	–
m1 = 0.1302	1005.34	996.15	991.55	986.95	977.69	968.39	959.05	–
m1 = 0.1523	1015.25	1006.06	1001.46	996.85	987.59	978.29	968.93	–
m1 = 0.1712	1023.81	1014.62	1010.03	1005.42	996.16	986.84	977.5	–

O=S(=O)([O-])C(F)(F)F.O=S(=O)([O-])C(F)(F)F.O=S(=O)([O-])C(F)(F)F.[La+3] [lanthanum(III) trifluoromethanesulfonate] + CN(C)C=O
Conditions	mass density, 283.15 K [kg/m3]	mass density, 293.15 K [kg/m3]	mass density, 298.15 K [kg/m3]	mass density, 303.15 K [kg/m3]	mass density, 313.15 K [kg/m3]	mass density, 323.15 K [kg/m3]	mass density, 333.15 K [kg/m3]	speed of sound, 298.15 K [m/s]
m1 = 0.02162	966.85	957.33	952.56	947.79	938.21	928.58	918.9	1456
m1 = 0.02944	970.04	960.51	955.75	950.97	941.39	931.77	922.1	1455.5
m1 = 0.03946	974.16	964.64	959.87	955.09	945.5	935.87	926.19	1455
m1 = 0.04997	978.49	968.96	964.2	959.42	949.83	940.2	930.52	1454.3
m1 = 0.06066	–	–	–	–	–	–	–	1453.6
m1 = 0.0607	982.91	973.38	968.61	963.83	954.24	944.62	934.95	–
m1 = 0.07649	989.57	980.03	975.24	970.46	960.87	951.24	941.56	1452.5
m1 = 0.09777	998.57	989.02	984.24	979.46	969.86	960.23	950.54	1450.8
m1 = 0.1172	1006.98	997.41	992.63	987.84	978.22	968.57	958.88	1449.4
m1 = 0.136	1015.16	1005.59	1000.8	996	986.37	976.72	967.03	1448
m1 = 0.1591	1025.46	1015.87	1011.07	1006.26	996.63	986.96	977.26	1446.3
m1 = 0.1792	1034.5	1024.89	1020.09	1015.28	1005.64	995.97	986.26	1444.9

O=S(=O)([O-])C(F)(F)F.O=S(=O)([O-])C(F)(F)F.O=S(=O)([O-])C(F)(F)F.[Lu+3] [lutetium(III) trifluoromethanesulfonate] + CC(=O)N(C)C
Conditions	mass density, 283.15 K [kg/m3]	mass density, 293.15 K [kg/m3]	mass density, 298.15 K [kg/m3]	mass density, 303.15 K [kg/m3]	mass density, 313.15 K [kg/m3]	mass density, 323.15 K [kg/m3]	mass density, 333.15 K [kg/m3]	speed of sound, 298.15 K [m/s]
m1 = 0.02294	960.37	951.15	946.53	941.91	932.67	923.39	914.07	1455.7
m1 = 0.03057	963.84	954.61	950	945.38	936.11	926.83	917.5	1455.4
m1 = 0.0402	968.22	958.99	954.37	949.75	940.48	931.19	921.86	1455
m1 = 0.05161	973.43	964.19	959.57	954.95	945.68	936.38	927.05	1454.7
m1 = 0.06304	978.74	969.5	964.89	960.24	950.96	941.65	932.31	1454.3
m1 = 0.07962	986.46	977.21	972.58	967.95	958.66	949.34	939.99	1453.7
m1 = 0.1022	997.19	987.92	983.29	978.65	969.35	960.02	950.65	1452.2
m1 = 0.1222	1006.81	997.54	992.9	988.26	978.94	969.59	960.2	1451.5
m1 = 0.1412	1016.12	1006.84	1002.2	997.55	988.22	978.86	969.47	1450.5
m1 = 0.1647	1027.86	1018.56	1013.91	1009.26	999.92	990.55	981.13	1449
m1 = 0.1843	1037.79	1028.48	1023.83	1019.21	1009.81	1000.43	991.01	1448.3

— the NIST ThermoML archive (doi:10.1016/j.jct.2012.11.004)
